Drawing on paper PMC5457731, “Molecular cloning, expression, and characterization of four novel thermo-alkaliphilic enzymes retrieved from a metagenomic library” (Biotechnology for Biofuels, 2017), this text covers Km for four compounds.

Common to all, as to assay: pNP release at […] nm, Lineweaver-Burk
Common to all, as to conditions: 50 mM Tris-HCl pH 7.5, 40 °C, 15 min

Experiment [1] deals with T1, protein 6 (gene 6 product, fosmid NT18-17).
T1 construct: full-length, pET28b(+) His-tags at N and C termini, E. coli Origami2(DE3) pLysS, ~22 kDa, gene amplicon 673 bp; alpha-glucosidase assignment unusual, host contaminant possible
The class given is biochemical.

Experiment [2] relates to T2, protein 5 (gene 5 product, fosmid 10BT).
T2 construct: full-length, pET28b(+) His-tags at N and C termini, E. coli Origami2(DE3) pLysS, ~45 kDa, gene amplicon 1262 bp; alpha-glucosidase assignment unusual, host contaminant possible
Format: biochemical.

For experiment [3], the system named is T3, protein 2 (gene 2 product, fosmid T5-5).
T3 construct: full-length, pET28b(+) His-tags at N and C termini, E. coli Origami2(DE3) pLysS, ~85 kDa, gene amplicon 2410 bp
The class given is biochemical, uncultured bacterium.

The test system of experiment [4] is T4, protein 1 (gene 1 product, fosmid NT2-2).
T4 construct: full-length, pET28b(+) His-tags at N and C termini, E. coli Origami2(DE3) pLysS, ~116 kDa, gene amplicon 3146 bp
The class given is biochemical, uncultured bacterium.

One may read the Km as the concentration of substrate that gives half-maximal velocity. As to `O=[N+]([O-])c1ccc(O[C@H]2O[C@H](CO)[C@@H](O)[C@H](O)[C@H]2O)cc1` [pNP-α-D-glucopyranoside], the Km in experiment [1] worked out at 21400 µM; in experiment [2], 7400 µM.

`O=[N+]([O-])c1ccc(O[C@@H]2OC[C@H](O)[C@H](O)[C@H]2O)cc1` [pNP-α-L-arabinopyranoside]: the Km in experiment [3] was 300 µM.

In the case of `O=[N+]([O-])c1ccc(O[C@@H]2O[C@H](CO)[C@H](O)[C@H](O)[C@H]2O)cc1` [pNP-β-D-galactopyranoside], the Michaelis-Menten constant (Km) in experiment [4] was 100 µM.

For the compound `O=[N+]([O-])c1ccc(O[C@@H]2OC[C@@H](O)[C@H](O)[C@H]2O)cc1` [pNP-β-D-xylopyranoside], in experiment [3], the Km came out at 1000 µM.
